Tested on: lasered monkey model of ocular hypertension
Experiment: IOP response in the lasered monkey model of ocular hypertension
Format: in vivo, cynomolgus monkeys
Conditions: for IOP Response % Change, 1 hr / IOP decrease from baseline (mmHg) / IOP Response % Change, 3 hr / IOP Response % Change, 6 hr: 300 μg topical, one 30 μL aliquot to right (lasered) eye, change from baseline IOP; for effect on IOP (in words): dosed at 300 μg, lasered monkey model of ocular hypertension
Method: Intraocular pressure was determined with an Alcon Pneumatonometer after light corneal anesthesia with 0.1% proparacaine. Eyes were washed with saline after-each measurement. After a baseline IOP measurement, test compound was instilled in one 30 μL aliquot to the right eyes only of nine cynomolgus monkeys. Vehicle was instilled in the right eyes of six additional animals. Subsequent IOP measurements were taken at 1, 3, and 6 hours. A compound is considered efficacious in this model of ocular hypertension if there is a decrease in the baseline IOP of the lasered eye (O.D.) of at least 20% following topical administration.

Compound | IOP Response % Change, 1 hr (1 hr after dosing) [%] | IOP decrease from baseline (mmHg) (1 hr after dosing) | IOP Response % Change, 3 hr (3 hr after dosing) [%] | IOP decrease from baseline (mmHg) (3 hr after dosing) | IOP Response % Change, 6 hr (6 hr after dosing) [%] | IOP decrease from baseline (mmHg) (6 hr after dosing) | effect on IOP (in words)
CC(N)Cn1ncc2ccc(O)cc21 (single isomer, unassigned; isomer 1) [S-(+)-isomer, 1-(2-aminopropyl)-indazol-6-ol] | −15.0 | 6.4 | −35.3 | 14.8 | −40.8 | 17.1 | significant decrease in IOP
CC(N)Cn1ncc2ccc(O)cc21 (centres unmarked) [Compound, 1-(2-aminopropyl)-indazol-6-ol] | −17.6 | 7.3 | −28.1 | 11.8 | −33.8 | 14.6 | significant decrease in IOP

— patent publication US6927233B1, “5ht2 agonists for controlling IOP and treating glaucoma” (Alcon, Inc., priority 2000, dated 2005)
